How the values were obtained:
Type in all cases: in vivo
perennial ryegrass [1] = assay: Turf tolerance field study, perennial ryegrass, Indiana 2004; details: 21 Days After Treatment, g ai/Ha: penoxsulam 35, imazaquin 104, bispyribac-sodium 75, trifloxysulfuron-sodium 9.2, metsulfuron-methyl 10.4; for Cover: 0 = bare ground, 100 = thick solid stand; for Color: 0 = brown to dead turf, 10 = lush green; for Injury: 0 = no visible injury, 10 = dead turf
Method: (§1) Turf tolerance studies were conducted in monoculture stands of perennial ryegrass and tall fescue. Replicated trials, containing a minimum of three replications and having individual plots ranging in size from 25 to 50 ft. sq (2.3 to 4.6 square meters), were initiated in the late spring when turf was actively growing. […] Natural rainfall and supplemental irrigation, fertilizer, fungicides and insecticides were used to maintain healthy turf throughout the study period. Turf tolerance evaluations were made weekly for 8 weeks after application. Evaluations compared treated and untreated plot areas and consisted of one or all of the following evaluations: 1) visual estimate of turf injury made on a 0 to 10 scale with 0 indicating no visible injury symptoms, 10 being dead turf and 3 or less being commercially acceptable; 2) visual estimate of turf color made on a 0 to 10 scale with 0 being brown to dead turf, 10 being a lush green turf of highest quality and 6.5 being commercially acceptable; 3) visual estimate of turf density made on a 0 to 100 scale with 0 being bare ground, 100 being a thick solid stand of highest quality and 90 percent density being commercially acceptable; 4) visual estimate of turf quality made on a 0 to 10 scale with 0 being brown to dead turf, 10 being a lush green turf of highest quality and 6.5 being commercially acceptable.

[2] = system: dandelion, Taraxacum officinale (TAROF); assay: Postemergent weed control field study, Pennsylvania 2004, TAROF; details: Granule formulation, g ai/Ha: penoxsulam 35, imazaquin 104, bispyribac-sodium 75, trifloxysulfuron-sodium 9.2, metsulfuron-methyl 10.4
From the text: (§2) The ALS inhibiting herbicides are useful in controlling broadleaf weeds and sedges in turfgrass. They are particularly effective against most important weeds in this application, viz., white clover, Trifolium repens L. (TRFRE); buckhorn plantain, Plantago lanceolata L. (PLALA); dandelion, Taraxacum officinale (TAROF); broadleaf plantain, Plantago major L. (PLAMA); ground ivy, Glechoma hederacea L. (GLEHE); common lespedeza, Lespedeza striata (LESST); pennywort (dollarweed), Hydrocotyle spp (HYDSS); Virginia buttonweed, Diodia virginiana L. (DIQVI) English daisy, Bellis perennis L. (BELPE); annual bluegrass, Poa annua (POANN); and yellow nutsedge, Cypres esculentus L. (CYPES).
(§3) Field studies were conducted in established turfgrass sites containing a natural population of target broadleaf weeds. Replicated trials, containing a minimum of three replications and having individual plots ranging in size from 25 to 50 ft. sq (2.3 to 4.6 square meters), were initiated in the late spring when turf and weeds were actively growing. Granule treatments were uniformly applied to individual plots using a common hand-shaker method. Applications were made in the early morning when dew was present. Natural rainfall and supplemental irrigation were used to maintain healthy turf and active weed growth throughout the study period. Control of each weed species in the study site was made at approximately 2, 4 and 8 weeks after treatment. Control was determined visually by comparing treated and untreated weeds and scored on a 0 to 100 percent scale where 0 corresponds to no control and 100 corresponds to complete kill.

[3] = system: white clover, Trifolium repens L. (TRFRE); assay: Postemergent weed control field study, Pennsylvania 2004, TRFRE; details: g ai/Ha: penoxsulam 35, imazaquin 104, bispyribac-sodium 75, trifloxysulfuron-sodium 9.2, metsulfuron-methyl 10.4; for Percent Weed Control TRFRE 29DAA: 29 Days After Application; for Percent Weed Control TRFRE 56DAA: 56 Days After Application
From the text: as §2
as §3, with “Granule treatments were uniformly applied to individual plots using a common hand-shaker method.” left out

perennial ryegrass [4] = assay: Perennial ryegrass turf quality field study, Pennsylvania 2004; details: perennial ryegrass, 0 = brown to dead turf, 10 = highest quality, g ai/Ha: penoxsulam 35, imazaquin 104, bispyribac-sodium 75, trifloxysulfuron-sodium 9.2, metsulfuron-methyl 10.4; for Turf Quality 4 DAA: 4 Days After Application; for Turf Quality 16 DAA: 16 Days After Application; for Turf Quality 36 DAA: 36 Days After Application
Method: as §1

[5] = system: annual bluegrass, Poa annua (POANN); assay: Postemergent weed control field study, Pennsylvania 2004, POANN; details: g ai/Ha: penoxsulam 35, imazaquin 104, bispyribac-sodium 75, trifloxysulfuron-sodium 9.2, metsulfuron-methyl 10.4; for Percent Weed Control POANN 29DAA: 29 Days After Application; for Percent Weed Control POANN 56DAA: 56 Days After Application
From the text: as §2, §3

tall fescue = assay: Turf tolerance field study, tall fescue, Indiana 2004; details: 14 Days After Treatment, g ai/Ha: penoxsulam 35, imazaquin 104, bispyribac-sodium 75, trifloxysulfuron-sodium 9.2, metsulfuron-methyl 10.4; for Cover: 0 = bare ground, 100 = thick solid stand; for Color: 0 = brown to dead turf, 10 = lush green; for Injury: 0 = no visible injury, 10 = dead turf
Method: as §1

[6] = system: dandelion, Taraxacum officinale (TAROF); assay: Postemergent weed control field study, Pennsylvania 2004, TAROF; details: Liquid formulation, g ai/Ha: penoxsulam 35, imazaquin 104, bispyribac-sodium 75, trifloxysulfuron-sodium 9.2, metsulfuron-methyl 10.4
[7] = system: buckhorn plantain, Plantago lanceolata L. (PLALA); assay: Postemergent weed control field study, Pennsylvania 2004, PLALA; details: g ai/Ha: penoxsulam 35, imazaquin 104, bispyribac-sodium 75, trifloxysulfuron-sodium 9.2, metsulfuron-methyl 10.4; for Percent Weed Control PLALA 29DAA: 29 Days After Application; for Percent Weed Control PLALA 56DAA: 56 Days After Application
From the text: as §2
as §3, with “Granule treatments were uniformly applied to individual plots using a common hand-shaker method.” left out

Question: With `COc1cc(OC)nc(NC(=O)[N-]S(=O)(=O)c2ncccc2OCC(F)(F)F)n1.[Na+]` [Trifloxysulfuron-sodium, trifloxysulfuron-sodium] as the compound, how does the Cover (perennial ryegrass [1]; Granule formulation) read?
Answer: 87.5 0-100 Scale

Question: And the Color (perennial ryegrass [1]; Granule formulation)?
Answer: 6.8 0-10 Scale

Question: What about the Injury (perennial ryegrass [1]; Granule formulation) of the same compound?
Answer: 5.3 0-10 Scale

Question: And the Cover (perennial ryegrass [1]; Liquid formulation)?
Answer: 57.5 0-100 Scale

Question: What about the Color (perennial ryegrass [1]; Liquid formulation) of the same compound?
Answer: 4.0 0-10 Scale

Question: What about the Injury (perennial ryegrass [1]; Liquid formulation) of the same compound?
Answer: 8.0 0-10 Scale

Question: What about the “Percent Weed Control TAROF 29DAA” value ([2]; 29 Days After Application) of the same compound?
Answer: 80.6%

Question: What about the “Percent Weed Control TAROF 56DAA” value ([2]; 56 Days After Application) of the same compound?
Answer: 40.0%

Question: What about the “Percent Weed Control TRFRE 29DAA” value ([3]; Granule formulation) of the same compound?
Answer: 80.0%

Question: And the “Percent Weed Control TRFRE 56DAA” value ([3]; Granule formulation)?
Answer: 56.7%

Question: What about the “Percent Weed Control TRFRE 29DAA” value ([3]; Liquid formulation) of the same compound?
Answer: 100.0%

Question: And the “Percent Weed Control TRFRE 56DAA” value ([3]; Liquid formulation)?
Answer: 100.0%

Question: What about the “Turf Quality 4 DAA” value (perennial ryegrass [4]; Granule formulation) of the same compound?
Answer: 9.3 0 to 10 scale

Question: What about the “Turf Quality 16 DAA” value (perennial ryegrass [4]; Granule formulation) of the same compound?
Answer: 4.3 0 to 10 scale

Question: What about the “Turf Quality 36 DAA” value (perennial ryegrass [4]; Granule formulation) of the same compound?
Answer: 8.3 0 to 10 scale

Question: What about the “Turf Quality 4 DAA” value (perennial ryegrass [4]; Liquid formulation) of the same compound?
Answer: 7.7 0 to 10 scale

Question: What about the “Turf Quality 16 DAA” value (perennial ryegrass [4]; Liquid formulation) of the same compound?
Answer: 2.7 0 to 10 scale

Question: And the “Turf Quality 36 DAA” value (perennial ryegrass [4]; Liquid formulation)?
Answer: 1.3 0 to 10 scale

Question: And the “Percent Weed Control POANN 29DAA” value ([5]; Granule formulation)?
Answer: 34.5%

Question: And the “Percent Weed Control POANN 56DAA” value ([5]; Granule formulation)?
Answer: 39.9%

Question: What about the “Percent Weed Control POANN 29DAA” value ([5]; Liquid formulation) of the same compound?
Answer: 95.4%

Question: And the “Percent Weed Control POANN 56DAA” value ([5]; Liquid formulation)?
Answer: 77.2%

Question: What about the Cover (tall fescue; Granule formulation) of the same compound?
Answer: 70.0 0-100 Scale

Question: What about the Color (tall fescue; Granule formulation) of the same compound?
Answer: 5.8 0-10 Scale

Question: What about the Injury (tall fescue; Granule formulation) of the same compound?
Answer: 5.8 0-10 Scale

Question: And the Cover (tall fescue; Liquid formulation)?
Answer: 51.3 0-100 Scale

Question: What about the Color (tall fescue; Liquid formulation) of the same compound?
Answer: 3.8 0-10 Scale

Question: And the Injury (tall fescue; Liquid formulation)?
Answer: 8.0 0-10 Scale

Question: What about the “Percent Weed Control TAROF 29DAA” value ([6]; 29 Days After Application) of the same compound?
Answer: 98.3%

Question: What about the “Percent Weed Control TAROF 56DAA” value ([6]; 56 Days After Application) of the same compound?
Answer: 100.0%

Question: And the “Percent Weed Control PLALA 29DAA” value ([7]; Granule formulation)?
Answer: 0.0%

Question: And the “Percent Weed Control PLALA 56DAA” value ([7]; Granule formulation)?
Answer: 11.1%

Question: And the “Percent Weed Control PLALA 29DAA” value ([7]; Liquid formulation)?
Answer: 0.0%

Question: And the “Percent Weed Control PLALA 56DAA” value ([7]; Liquid formulation)?
Answer: 33.3%

Source: patent publication US7799343B2, “Safer control of broadleaf weeds in turf with granular formulations of ALS inhibiting herbicides” (priority 2006, dated 2010)
